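How tested: cells in 96-well plates exposed to compound for 48 hours at five concentrations. GI50 is the concentration that inhibits growth by half.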 Calls of active or inactive are those of the source. Rule as the data show it: active = GI50 up to about 1.1 µM and inactive = higher.

We go through 10 molecules from ChEMBL document CHEMBL1201862, “PubChem BioAssay data set” (2004).

Some test systems named below: MDA-N; M14; HCT-15; NCI-H522; SR; A549; MDA-MB-435; NCI-H460; OVCAR-5; SW-620; HOP-92; U-251; MCF7; UACC-62; HCT-116; CCRF-CEM; EKVX; SF-295; PC-3; SN12C.
Common to all, as to test: NCI anticancer screen, dose series, 48 h

`CC(C)(C)C1(COC(=O)c2ccc(N)cc2)COC1`: the GI50 in the experiment on MDA-N is 66.1 µM (inactive); with M14, 61 µM (inactive); in the experiment with HCT-15, 63.2 µM; with NCI-H522 it was 47.6 µM (inactive); with SR, 75.3 µM (inactive); in the experiment with A549, 52.6 µM (inactive). For the same molecule, the GI50 is 53.3 µM (inactive) with MDA-MB-435; 48.4 µM (inactive) in the experiment on NCI-H460; > 100 µM (inactive) with OVCAR-5; > 100 µM (inactive) in the experiment on SW-620; > 100 µM (inactive) in the experiment with HOP-92; 58.1 µM (inactive) with U-251. Also, the GI50 in the experiment on MCF7 was 45 µM (inactive); with UACC-62, 55 µM (inactive); in the experiment on HCT-116, 51.9 µM (inactive); with CCRF-CEM, 46 µM (inactive); in the experiment on EKVX it was 39.4 µM (inactive); in the experiment with SF-295, 29.1 µM (inactive). Also, the figures for the GI50 in the experiment on PC-3 and with SN12C were 47.2 µM (inactive) and 94.6 µM (inactive), respectively.
On to `O=C(O)C(C(=O)O)P(=S)(S)c1ccccc1` (stereo not given), for which the GI50 was > 100 µM (inactive) in the experiment on MDA-N; > 100 µM (inactive) with M14; more than 100 µM with HCT-15; > 100 µM (inactive) in the experiment with NCI-H522; > 73.5 µM (inactive) in the experiment with SR; > 100 µM (inactive) in the experiment on A549. Further, the GI50 in the experiment with MDA-MB-435, in the experiment with NCI-H460, in the experiment with OVCAR-5, with SW-620, in the experiment on HOP-92 and with U-251 was > 100 µM (inactive) throughout. Also, the GI50 with MCF7, in the experiment on UACC-62, in the experiment on HCT-116, in the experiment with CCRF-CEM, with EKVX and in the experiment with SF-295 was > 100 µM (inactive) each time. For the same molecule, the GI50 in the experiment on PC-3 and in the experiment with SN12C was > 100 µM (inactive) each time.
For `Cc1cc(C)nc(NS(=O)(=O)c2ccc(NC(=O)c3c4ccccc4nc4ccccc34)cc2)n1`, the GI50 is > 100 µM (inactive) in the experiment with MDA-N; > 100 µM (inactive) in the experiment with M14; 65.9 µM with HCT-15; 64.3 µM (inactive) in the experiment with NCI-H522; > 100 µM (inactive) in the experiment with SR; > 100 µM (inactive) in the experiment with A549. The GI50 was > 100 µM (inactive) with MDA-MB-435; > 100 µM (inactive) with NCI-H460; > 100 µM (inactive) in the experiment with OVCAR-5; > 100 µM (inactive) in the experiment on SW-620; > 100 µM (inactive) in the experiment on HOP-92; 69.3 µM (inactive) in the experiment with U-251. Further, the GI50 is > 100 µM (inactive) in the experiment with MCF7; > 100 µM (inactive) in the experiment with UACC-62; 68.4 µM (inactive) with HCT-116; > 100 µM (inactive) with CCRF-CEM; > 100 µM (inactive) in the experiment with EKVX; > 100 µM (inactive) in the experiment on SF-295. Also, the GI50 with PC-3 and with SN12C was > 100 µM (inactive) throughout.
On to `CCCCC(=O)c1c(O)ccc2c(C)cc(=O)oc12`, for which the GI50 is > 100 µM (inactive) in the experiment with MDA-N; > 100 µM (inactive) in the experiment with M14; 50.4 µM in the experiment on HCT-15; 58.2 µM (inactive) in the experiment on NCI-H522; 40.7 µM (inactive) with SR; 73.3 µM (inactive) with A549. The GI50 was > 100 µM (inactive) in the experiment with MDA-MB-435; 53.1 µM (inactive) in the experiment on NCI-H460; > 100 µM (inactive) in the experiment on OVCAR-5; > 100 µM (inactive) in the experiment on SW-620; 36.3 µM (inactive) with HOP-92; > 100 µM (inactive) in the experiment on U-251. Also, the GI50 with MCF7 is 76.2 µM (inactive); in the experiment on UACC-62 it was > 100 µM (inactive); in the experiment on HCT-116, > 100 µM (inactive); in the experiment on CCRF-CEM, 82.2 µM (inactive); with EKVX, 89.1 µM (inactive); in the experiment on SF-295, > 100 µM (inactive). Also, the GI50 in the experiment on PC-3 and with SN12C was > 100 µM (inactive) in each case.
As to `C(#Cc1ccccc1)SC1=C(c2ccccc2)S/C(=C(\SC#Cc2ccccc2)c2ccccc2)S1`, the GI50 was > 100 µM (inactive) in the experiment on MDA-N; > 100 µM (inactive) in the experiment on M14; more than 100 µM in the experiment on HCT-15; > 100 µM (inactive) with NCI-H522; > 100 µM (inactive) with SR; > 100 µM (inactive) in the experiment on A549. The GI50 in the experiment with MDA-MB-435, with NCI-H460, in the experiment with OVCAR-5, in the experiment on SW-620, in the experiment with HOP-92 and in the experiment with U-251 was > 100 µM (inactive) throughout. The GI50 in the experiment on MCF7, in the experiment on UACC-62, in the experiment on HCT-116, in the experiment on CCRF-CEM, in the experiment on EKVX and with SF-295 was > 100 µM (inactive) in each case. The GI50 in the experiment on PC-3 and with SN12C was > 100 µM (inactive) in each case.
Consider `C=CCC1(c2ccc(OC)cc2)C=CC(=O)CC1` (stereo not given), for which the GI50 in the experiment on MDA-N was 65.8 µM (inactive); in the experiment with M14 it was > 100 µM (inactive); with HCT-15 it was 72.3 µM; with NCI-H522 it was 77.1 µM (inactive); with SR it was 44.3 µM (inactive); in the experiment on A549 it was > 100 µM (inactive). Also, the GI50 in the experiment with MDA-MB-435 was 66.4 µM (inactive); in the experiment with NCI-H460, > 100 µM (inactive); with OVCAR-5, > 100 µM (inactive); with SW-620 it was > 100 µM (inactive); in the experiment on HOP-92, 44.9 µM (inactive); with U-251 it was 52.4 µM (inactive). Besides, the GI50 is > 100 µM (inactive) in the experiment with MCF7; 68.7 µM (inactive) with UACC-62; > 100 µM (inactive) with HCT-116; 24.3 µM (inactive) with CCRF-CEM; > 100 µM (inactive) in the experiment with EKVX; > 100 µM (inactive) with SF-295. The GI50 is 77.3 µM (inactive) in the experiment with PC-3 and > 100 µM (inactive) with SN12C.
As for `COC(=O)C(COC(=O)/C=C/c1ccc(OC(C)=O)c(OC(C)=O)c1)OC(=O)/C=C/c1ccc(OC(C)=O)c(OC(C)=O)c1` (stereo not given), the GI50 was 9.73 µM (inactive) in the experiment on MDA-N; 7.8 µM (inactive) in the experiment with M14; 5.38 µM in the experiment with HCT-15; 5.18 µM (inactive) with NCI-H522; 3.01 µM (inactive) in the experiment on SR; 16.7 µM (inactive) in the experiment on A549. Moreover, the GI50 was 11 µM (inactive) with MDA-MB-435; 18.7 µM (inactive) with NCI-H460; 13 µM (inactive) with OVCAR-5; 6.27 µM (inactive) in the experiment on SW-620; 18 µM (inactive) in the experiment on HOP-92; 4.62 µM (inactive) with U-251. Further, the GI50 in the experiment on MCF7 was 6.61 µM (inactive); in the experiment with UACC-62, 16.8 µM (inactive); with HCT-116 it was 4.14 µM (inactive); with CCRF-CEM it was 3.38 µM (inactive); with EKVX, 17.5 µM (inactive); in the experiment on SF-295 it was 14.3 µM (inactive). The figures for the GI50 in the experiment with PC-3 and with SN12C were 11.1 µM (inactive) and 14.6 µM (inactive), respectively.
`Cc1cccc2c1NC(=O)/C2=N\Nc1ccccc1[N+](=O)[O-]`: the GI50 was 20.1 µM (inactive) in the experiment with MDA-N; 19.4 µM (inactive) with M14; 15.3 µM in the experiment with HCT-15; 0.871 µM (active) in the experiment on NCI-H522; 2.7 µM (inactive) in the experiment on SR; 4.49 µM (inactive) with A549. In addition, the GI50 was 22.6 µM (inactive) with MDA-MB-435; 6.9 µM (inactive) in the experiment on NCI-H460; 26.2 µM (inactive) in the experiment with OVCAR-5; 9.82 µM (inactive) in the experiment with SW-620; 2.38 µM (inactive) with HOP-92; 2.37 µM (inactive) in the experiment with U-251. In addition, the GI50 in the experiment on MCF7 is 4.6 µM (inactive); in the experiment on UACC-62, 14.5 µM (inactive); with HCT-116 it was 6.82 µM (inactive); in the experiment on CCRF-CEM it was 6.3 µM (inactive); in the experiment on EKVX it was 1.58 µM (inactive); with SF-295, 4.24 µM (inactive). Further, the GI50 was 10.9 µM (inactive) in the experiment with PC-3 and 9.89 µM (inactive) with SN12C.
Regarding `C[C@]12CC[C@@H]3c4cc(OCC(F)(F)F)c(O)cc4C(=O)C[C@H]3[C@@H]1CC[C@@H]2O`, the GI50 in the experiment on MDA-N is 1.6 µM (inactive); in the experiment with M14, 5.77 µM (inactive); in the experiment with HCT-15, 4.18 µM; with NCI-H522 it was 3.3 µM (inactive); with SR it was 1.51 µM (inactive); in the experiment with A549 it was 6.98 µM (inactive). The GI50 in the experiment with MDA-MB-435 is 1.78 µM (inactive); with NCI-H460, 4.71 µM (inactive); with OVCAR-5, 29.9 µM (inactive); in the experiment on SW-620 it was 4.02 µM (inactive); in the experiment with HOP-92, 20.7 µM (inactive); in the experiment on U-251, 4.67 µM (inactive). The GI50 with MCF7 is 5.07 µM (inactive); in the experiment with UACC-62, 3.26 µM (inactive); in the experiment on HCT-116, 3.72 µM (inactive); with CCRF-CEM it was 3.39 µM (inactive); with EKVX it was 14.7 µM (inactive); in the experiment with SF-295, 3.6 µM (inactive). The GI50 with PC-3 is 18.5 µM (inactive); in the experiment with SN12C it was 13.1 µM (inactive).
Regarding `Cc1cc(NC2=CC(=O)C(=O)c3ccccc32)no1`, the GI50 is 1.85 µM (inactive) in the experiment with MDA-N; 14.8 µM (inactive) with M14; 3.62 µM in the experiment with HCT-15; 18.5 µM (inactive) in the experiment with NCI-H522; 7.16 µM (inactive) in the experiment with SR; 5 µM (inactive) with A549. The GI50 in the experiment with MDA-MB-435 is 1.88 µM (inactive); with NCI-H460 it was 6.87 µM (inactive); in the experiment with OVCAR-5, 5.5 µM (inactive); in the experiment with SW-620, 4.94 µM (inactive); in the experiment with HOP-92 it was 16.4 µM (inactive); in the experiment on U-251, 3.92 µM (inactive). The GI50 was 2.81 µM (inactive) with MCF7; 3.23 µM (inactive) in the experiment on UACC-62; 14.7 µM (inactive) in the experiment on HCT-116; 9.66 µM (inactive) with CCRF-CEM; 16.1 µM (inactive) with EKVX; 9.1 µM (inactive) with SF-295. For the same molecule, the GI50 is 10.3 µM (inactive) with PC-3 and 2.88 µM (inactive) in the experiment with SN12C.
